Columns and labels:
FGFR2 = assay: FGFR phosphorylation in KATO III cells (Western blotting, Wes); assay type: cell-based
Protocol: For assessment of the effect of RPT835 inhibitor characterized in this invention with formula II, stomach cancer cells KATO III, which express FGFR2, were used for FRS2 phosphorylation. FGF-2 in concentration of 1 mg/ml and heparin 10 mg/ml were added to the cells for stimulation of FGFR. RPT835 was added in various concentrations. A part of the cells was left without adding the inhibitor, and a part of the cells—without adding either inhibitor, or stimulating agents (control group).
Two standard methods for assessment of the phosphorylation level of FGFR and FRS2: • Western blotting using manual work; • Automatic capillary electrophoresis and immunodetection using automatic system Wes™ (ProteinSimple; SantaClara, Calif.).
Like in Example 1, stomach cancer cells KATO III strongly expressing FGFR2 were used. A part of cells stimulated FGF-2 in concentration 1 mg/ml and heparin 10 mg/ml. The other part of the cells was left without stimulation. Inhibitor RPT835 in dose 1, 10, 100, 1000 nM was added to cells. The control group left without addition of RPT835.
The level of FGFR phosphorylation was assessed using standard Western-blotting and automatic capillary electrophoresis with immune-detection and use of automatic system Wes™ (ProteinSimple; SantaClara, Calif.).

[1] = test system: SVEC-4-10 endothelial cells; assay: Crystal Violet proliferation assay, SVEC-4-10; assay type: cell-based; conditions: SVEC-4-10, strongly expresses FGFR2; bFGF 100 ng/ml, 7 days
Excerpt: This research used additional cell lines: SKOV3 (ovarian cancer, ATCC # HTB-77), HS578T (breast cancer, ATCC # HTB-126), T47D (breast cancer, ATCC #HTB-1336), modified line of non-small cells lung cancer A549, line of metastatic melanoma of skin Mel Kor (RF Patent No. 2287578), and additional study of antiangiogenic activity—cell line SVEC-4-10 (endothelial cells, ATCC #CRL-2181).
The cells were cultivated in environment RPMI-1640 (PANECO) (SKOV3, HS578T, T47D, Mel-Kor) or DMEM (PANECO) (SVEC-4-10) containing 10% of embryonal serum cattle (FCS, HyClone), 2 mM glutamine (PANECO), antibiotics (100 IU/mL penicillin and […] streptomycin (all PANECO)) at 37° C. and 5% CO2. Cells at 70-80% monolayer were used for the experiments.
The cells were planted in low density (30 t of cells/ml) in triplets on a 96-cavity plate in an environment containing 0.1% of FCS serum. […] Growth of cells was determined by the modified “Crystal Violet mitogenic method” for 7 days after the experiment start. […] The dye was dissolved in ethanol and measured on a spectrophotometer at 540-560 nm. The curve of cell proliferative activity inhibition was built by the dependence of the percent of the cell quantity (Y axis) on concentration of inhibitor RPT835 in the cavity of the plate (X axis). […]

[2] = test system: non-small cell lung cancer NCI-H226; assay: Tumor growth of NCI-H226 xenograft in nude mice; assay type: in vivo; conditions: 30 day; NCI-H226 not expressing FGFR2, 30 mg/kg daily through a stomach tube; P=0.619 vs control
Protocol: Females of immunodeficient mice (nude) at the age of 8 weeks were administered 2×10^6 tumor cells of human cell lines with various expression of FGFR2: • cell line of triple-negative breast cancer SUM52PE strongly expressing FGFR2 (purchased from Asterand, Inc. (Detroit, Mich.) • cell line of triple negative breast cancer HS578T weakly expressing FGFR2 (purchased from ATCC (CRL-125) • cell line of non-small cell lung cancer NCI-H226 not expressing FGFR2 (purchased from ATCC (CRL-5826)
After the tumor growth got established (1 mm^3), the mice were divided into control and treatment groups in accordance with the tumor type.
Control group 3 (N=10): NCI-H226, administration of water through a stomach tube, daily.
Treatment group 3 (N=10): NCI-H226, administration of inhibiter RPT835 through a stomach tube in a dose of 30 mg/kg, daily.
Size of tumor and weight of animals were measured every 3 day. The mice underwent euthanasia when the tumor reached the size of 2,000 mm^3 or on the 60 day of the experiment.

FRS2α = target: T1, FRS2α (Homo sapiens, UniProt Q8WU20); assay: FRS2α phosphorylation in hFOB cells (Western blotting); assay type: cell-based; set-up: endogenous in cells; host or cells: hFOB; conditions: hFOB (FGFR2 IIIc), RPT835 1 micron, FGF-1 100 ng/ml
T1 sequence (Q8WU20 1-508): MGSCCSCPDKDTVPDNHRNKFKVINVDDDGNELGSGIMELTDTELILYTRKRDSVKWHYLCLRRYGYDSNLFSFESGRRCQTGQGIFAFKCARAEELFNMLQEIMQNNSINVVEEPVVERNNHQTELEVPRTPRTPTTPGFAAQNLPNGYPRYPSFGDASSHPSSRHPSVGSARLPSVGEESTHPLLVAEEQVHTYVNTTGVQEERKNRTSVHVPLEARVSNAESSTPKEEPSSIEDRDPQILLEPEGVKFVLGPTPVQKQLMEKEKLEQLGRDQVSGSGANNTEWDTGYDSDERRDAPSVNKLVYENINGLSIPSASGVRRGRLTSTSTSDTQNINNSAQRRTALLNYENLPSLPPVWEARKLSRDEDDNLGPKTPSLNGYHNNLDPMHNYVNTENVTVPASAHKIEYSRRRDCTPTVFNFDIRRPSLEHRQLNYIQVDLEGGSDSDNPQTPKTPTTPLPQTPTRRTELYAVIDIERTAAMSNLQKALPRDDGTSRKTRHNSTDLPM
Protocol: The research assessed the influence of inhibitor RPT835 determined by formula II of this invention, intervention with interaction of FGFR2 represented by two most frequent isoforms IIIb and IIIc with FRS2. For this, human cell line of embryonal osteoblasts (hFOB) expressing only FGFR2 […], and human cell line of breast cancer SUM-52 expressing FGFR2 IIIb (all main versions of isoform—C1, C2, C3) were chosen.
Cells were divided into the groups: • 1a) hFOB • 1b) hFOB, stimulating FGF-1 (100 ng/ml) • 1c) hFOB, cultivation with RPT835 (1 micron) and stimulation of FGF-1 (100 ng/ml) • 2a) SUM-52 • 2b) SUM-52, stimulation of FGF-1 (100 ng/ml) • 2c) SUM-52, cultivation with RPT835 (1 micron) and stimulation of FGF-1 (100 ng/ml)

SMILES: Cc1cc([N+](=O)[O-])c(NS(=O)(=O)c2cccc(C(=O)O)c2)cc1-c1cccnc1 [RPT835, 3-(N-(4-methyl-2-nitro-5-(pyridin-3-yl)phenyl)sulfamoyl)benzoic acid]
- phosphorylation of FGFR2 stimulated by FGF-2 (tyrosine kinase activity) (FGFR2; KATO III cells, 1, 10, 100, 1000 nM): did not have any effect
- phosphorylation of general FGFR (FGFR2; KATO III cells, with and without FGF-2 stimulation): without influence on phosphorylation of general FGFR
- inhibition of proliferative activity [1]: maximum inhibiting effect
- average tumor volume [2]: 1,053±259.7 mm3
- FRS2α phosphorylation level (FRS2α): completely suppressed the phosphorylation
